Reference: PubChem BioAssay (NCI)
Values joined by “and” are separate entries in the source; they are usually repeats but may differ in a detail not shown here. Identical values can stand only once.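 A five-concentration, 48-hour dose response in 96-well plates underlies each endpoint, interpolated linearly between surrounding concentrations. At the GI50, growth is halved. TGI marks complete inhibition of growth.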

System: MDA-MB-468 breast
Test: NCI-60 cell line screen, 48 h

Structure (SMILES)	GI50	TGI
C=C1CC[C@@H]2[C@](C)(COC(C)=O)[C@H](OC(C)=O)CC[C@@]2(C)[C@@H]1CC(Sc1ccccc1)C1=CCOC1=O (some centres not stated)	1410 nM	3.26 µM
O=C(Cc1ccc(/C=C/C(=O)c2ncc[nH]2)cc1)Nc1cc(F)c(F)c(F)c1	1110 nM	4.53 µM
O=C1/C(=C/c2ccc(Br)cc2)COc2ccc(O)c(O)c21	1370 nM	3.2 µM
CCN(CC)CCCC(CNc1ccnc2cc(Cl)ccc12)c1ccc(Cl)cc1 (configuration not stated)	992 nM and 419 nM	2.55 µM and 1.49 µM
CCN(CC)CCC(CNc1ccnc2cc(Cl)ccc12)c1ccc(OC)cc1 (configuration not stated)	1990 nM	4.77 µM and 5.3 µM
[Cl][Hg][c]1cc(Br)cc(Br)c1	1370 nM	3.02 µM
NC(=O)c1c(NC(=O)c2ccc(C3CCCCC3)cc2)sc2c1CCC(=O)C2	297 nM	1.43 µM
CC(C)=CCNc1ncnc2c1ncn2C1OC(CO)C(O)C1O (configuration not stated)	370 nM	1.78 µM
COc1cc(C2CC(c3cccc(Br)c3)=NN2C(C)=O)cc(OC)c1OC (configuration not stated)	215 nM	> 100 µM
CCCCCCCCCCCCCC1=NC(C)(C)CN1C(C)C	1520 nM	2.94 µM
Cc1ccc(C)c(C2=C(c3cn(C)c4ccccc34)C(=O)NC2=O)c1	24300 nM	> 25 µM
